Assay: solubility in solvents
Assay type: physicochemical

Question: For `C[C@@H]1OC=C(C(=O)NN)[C@H]2C[C@H]3c4[nH]c5ccccc5c4CCN3C[C@H]12` [hydrazide de l'acide Raubasinique, Hydrazide de l'acide Raubasinique], which solubilité (in a mixture pyridine-eau) is on record?
Answer: soluble

Question: What about the solubilité (in méthanol) of the same molecule?
Answer: très soluble

Question: And the solubilité (in n- butanol)?
Answer: très soluble

Question: And the solubilité (in the other solvents)?
Answer: peu soluble

Question: For “hydrazide de l'acide 10-methoxy raubasinique”, which solubilité (dichlorhydrate, in organic solvents) is on record?
Answer: très soluble

Source: patent EP0003269A1, “Pentacyclic derivatives, process for their preparation and pharmaceutical compositions containing them” (SCIENCE UNION ET Cie SOCIETE FRANCAISE DE RECHERCHE MEDICALE, priority 1977, dated 1979)
